From PubChem BioAssay (NCI)
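Method: 48-hour compound exposure of cells in 96-well plates, five concentrations, linear interpolation of endpoints. Abbreviation: GI50, concentration required for 50% inhibition of growth. TGI is the concentration that stops growth completely.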

Columns and labels:
Assay in all cases: growth of human tumour cells (NCI), 48 h
[1] = system: SF-268 CNS
[2] = system: PC-3 prostate
[3] = system: OVCAR-3 ovarian
[4] = system: SNB-19 CNS
[5] = system: HS 578T breast
[6] = system: ACHN renal
[7] = system: OVCAR-8 ovarian
[8] = system: RXF 393 renal
[9] = system: IGROV1 ovarian
[10] = system: 786-0 renal
[11] = system: NCI/ADR-RES ovarian
[12] = system: TK-10 renal
[13] = system: HCT-15 colon
[14] = system: SK-MEL-2 melanoma
[15] = system: RPMI-8226 leukemia
[16] = system: SK-MEL-5 melanoma
[17] = system: EKVX NSCLC
[18] = system: NCI-H460 lung
[19] = system: BT-549 breast
[20] = system: NCI-H522 lung
[21] = system: HL-60(TB) leukemia
[22] = system: M14 melanoma
[23] = system: T-47D breast
[24] = system: MALME-3M melanoma
[25] = system: DU-145 prostate
[26] = system: MDA-MB-435
[27] = system: OVCAR-5 ovarian
[28] = system: SF-295 CNS
[29] = system: LOX IMVI melanoma
[30] = system: KM12 colon
[31] = system: HT29 colon
[32] = system: SN12C renal
[33] = system: SW-620 colon
[34] = system: MOLT-4 leukemia
[35] = system: SK-OV-3 ovarian
[36] = system: SF-539 CNS
[37] = system: CCRF-CEM leukemia
[38] = system: MCF7 breast
[39] = system: MDA-MB-231 breast
[40] = system: COLO 205 colon
[41] = system: NCI-H23 lung
[42] = system: A549 NSCLC
[43] = system: UO-31 renal
[44] = system: OVCAR-4 ovarian
[45] = system: NCI-H226 lung
[46] = system: HCT-116 colon
[47] = system: CAKI-1 renal
[48] = system: HOP-62 NSCLC
[49] = system: UACC-62 melanoma
[50] = system: SK-MEL-28 melanoma
[51] = system: HOP-92 NSCLC
[52] = system: UACC-257 melanoma
[53] = system: U251 CNS
[54] = system: A498 renal
[55] = system: SNB-75 CNS
[56] = system: K-562 leukemia

CN1C(=O)/C(=C/c2c(Cl)[nH]c3ccccc23)c2ccccc21 was tested, and the GI50 [1] was 66.7 µM, the TGI [1] was over 100 µM and the GI50 [2] was 29.5 µM. The TGI [2] was over 100 µM, the GI50 [3] was 22.6 µM and the TGI [3] was 58.7 µM. It also gave a GI50 [4] of 35.4 µM, a TGI [4] of over 100 µM and a GI50 [5] of 28.9 µM. It also gave a TGI [5] of 72.9 µM, a GI50 [6] of 32.9 µM and a TGI [6] of over 100 µM. The GI50 [7] was 63.4 µM, the TGI [7] was over 100 µM and the GI50 [8] was 53.4 µM. For the same molecule, the TGI [8] was over 100 µM, the GI50 [9] was 37.6 µM and the TGI [9] was over 100 µM. For the same molecule, the GI50 [10] was 32.4 µM, the TGI [10] was over 100 µM and the GI50 [11] was 25.5 µM. It also gave a TGI [11] of 61.2 µM, a GI50 [12] of 14 µM and a TGI [12] of 46.2 µM. It also gave a GI50 [13] of 34.1 µM, a TGI [13] of over 100 µM and a GI50 [14] of 45.1 µM. The TGI [14] was over 100 µM, the GI50 [15] was 24.1 µM and the TGI [15] was over 100 µM. For the same molecule, the GI50 [16] was 14.6 µM, the TGI [16] was 51.2 µM and the GI50 [17] was 75.2 µM. For the same molecule, the TGI [17] was over 100 µM, the GI50 [18] was 46.7 µM and the TGI [18] was over 100 µM. For the same molecule, the GI50 [19] was 37.4 µM, the TGI [19] was 94.3 µM and the GI50 [20] was 21.4 µM. The TGI [20] was 80.1 µM, the GI50 [21] was 32.6 µM and the TGI [21] was 93.4 µM. For the same molecule, the GI50 [22] was 19.8 µM, the TGI [22] was 65.8 µM and the GI50 [23] was 22.5 µM. The TGI [23] was 71.2 µM, the GI50 [24] was 25.5 µM and the TGI [24] was over 100 µM. It also gave a GI50 [25] of 89.5 µM, a TGI [25] of over 100 µM and a GI50 [26] of 23.8 µM. The TGI [26] was 59.9 µM, the GI50 [27] was 55.9 µM and the TGI [27] was over 100 µM. The GI50 [28] was 25.9 µM, the TGI [28] was 85.5 µM and the GI50 [29] was 43.3 µM. For the same molecule, the TGI [29] was over 100 µM, the GI50 [30] was 2.05 µM and the TGI [30] was 10.1 µM. For the same molecule, the GI50 [31] was 25.5 µM, the TGI [31] was 98.5 µM and the GI50 [32] was 77.2 µM. It also gave a TGI [32] of over 100 µM, a GI50 [33] of 35.8 µM and a TGI [33] of over 100 µM. For the same molecule, the GI50 [34] was 41.8 µM, the TGI [34] was over 100 µM and the GI50 [35] was 25.8 µM. It also gave a TGI [35] of 67.1 µM, a GI50 [36] of 33 µM and a TGI [36] of 75.6 µM. It also gave a GI50 [37] of 29 µM, a TGI [37] of over 100 µM and a GI50 [38] of 53.7 µM. The TGI [38] was over 100 µM, the GI50 [39] was 39 µM and the TGI [39] was over 100 µM. It also gave a GI50 [40] of 18.1 µM, a TGI [40] of 34.9 µM and a GI50 [41] of 38.2 µM. The TGI [41] was over 100 µM, the GI50 [42] was 79.7 µM and the TGI [42] was over 100 µM. It also gave a GI50 [43] of 37.1 µM, a TGI [43] of over 100 µM and a GI50 [44] of 52.3 µM. For the same molecule, the TGI [44] was over 100 µM, the GI50 [45] was 48.3 µM and the TGI [45] was over 100 µM. For the same molecule, the GI50 [46] was 25.9 µM, the TGI [46] was 87.8 µM and the GI50 [47] was 29.8 µM. It also gave a TGI [47] of 89.5 µM, a GI50 [48] of 31.3 µM and a TGI [48] of over 100 µM. The GI50 [49] was 37.4 µM, the TGI [49] was over 100 µM and the GI50 [50] was 35 µM. It also gave a TGI [50] of over 100 µM, a GI50 [51] of 37 µM and a TGI [51] of over 100 µM. It also gave a GI50 [52] of over 100 µM, a TGI [52] of over 100 µM and a GI50 [53] of 40.4 µM. It also gave a TGI [53] of over 100 µM.

COc1ccc(/C=C2\N=C(SC)N(C)C2=O)cc1 showed a TGI [1] of over 100 µM, a TGI [2] of over 100 µM and a TGI [3] of over 100 µM. For the same molecule, the TGI [4] was over 100 µM, the TGI [5] was 90.4 µM and the TGI [6] was over 100 µM. It also gave a TGI [7] of over 100 µM, a TGI [8] of over 100 µM and a TGI [9] of over 100 µM. The TGI [10] was over 100 µM, the TGI [11] was over 100 µM and the TGI [12] was over 100 µM. It also gave a TGI [13] of over 100 µM, a TGI [14] of over 100 µM and a TGI [15] of over 100 µM. It also gave a TGI [54] of over 100 µM, a TGI [16] of over 100 µM and a TGI [55] of over 100 µM. The TGI [18] was over 100 µM, the TGI [19] was over 100 µM and the TGI [21] was over 100 µM. The TGI [22] was over 100 µM, the TGI [23] was over 100 µM and the TGI [25] was over 100 µM. For the same molecule, the TGI [26] was over 100 µM, the TGI [27] was over 100 µM and the TGI [29] was over 100 µM. The TGI [31] was over 100 µM, the TGI [32] was over 100 µM and the TGI [33] was over 100 µM. The TGI [35] was over 100 µM, the TGI [36] was over 100 µM and the TGI [37] was over 100 µM. The TGI [38] was over 100 µM, the TGI [39] was over 100 µM and the TGI [40] was over 100 µM. The TGI [41] was over 100 µM, the TGI [42] was over 100 µM and the TGI [43] was over 100 µM. It also gave a TGI [44] of over 100 µM, a TGI [45] of over 100 µM and a TGI [46] of over 100 µM. It also gave a TGI [48] of over 100 µM, a TGI [49] of over 100 µM and a TGI [50] of over 100 µM. For the same molecule, the TGI [51] was over 100 µM, the TGI [52] was over 100 µM and the TGI [56] was over 100 µM. For the same molecule, the TGI [53] was over 100 µM.
